“And” between values parts separate entries of the source, which are not always exact repeats. Equal entries are not always repeated.

Holding throughout (settings): incubation time: 72 h
The test system of assay [1] is CAL-51. Kind of assay: normalised viability (% of control), CellTiter-Blue; higher = more viable cells (100 = DMSO, 0 = benzethonium chloride kill control). The method, then: (§1)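 DSRT, CellTiter-Blue viability, 72 h incubation. Signal is normalised to DMSO and benzethonium chloride controls. Value is the normalised response at dose 1.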
(Resazurin is reduced to fluorescent resorufin, in cell work by metabolically active cells.)

In the next assay the test system is MFM-223. The description is as above. As for the experimental part: as §1
In another assay the test system is BT-549. The assay is described as above. As for the experimental part: as §1
Another assay deals with MDA-MB-468. The assay is described as above. As for the experimental part: as §1
The test system of a further assay is HCC1143. The description is as above. The method, then:
as §1

The test system of assay [2] is HDQ-P1. The assay is described as above. As for the experimental part: as §1
The test system of a further assay is BT-474. The description is as above. As for the experimental part: as §1
Assay [3] relates to CAL-148. Described as above. The method, then:
as §1

In a further assay the test system is MDA-MB-231. Described as above. The method, then: as §1
In another assay the test system is HCC1937. The description is as above. As for the experimental part: as §1
Assay [4] relates to MDA-MB-453. The description is as above. The method, then:
as §1

In the next assay the test system is SK-BR-3. The description is as above. The method, then:
as §1

For the next assay, the system named is Hs578T. The description is as above. The method, then:
as §1

The subject of assay [5] is CAL-85-1. The assay is described as above. As for the experimental part:
as §1

Assay [6] has as its system DU-4475. The description is as above. As for the experimental part: as §1
The next assay relates to HCC1599. Described as above. As for the experimental part: as §1
In a further assay the test system is MDA-MB-436. The description is as above. The method, then:
as §1

Another assay relates to CAL-120. Described as above. As for the experimental part:
as §1

For assay [7], the system named is CAL-51. Description: normalised viability (% of control), CellTiter-Blue; higher = more viable cells (about 100 = DMSO control). The method, then:
(§2)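 DSRT, CellTiter-Blue viability, 72 h incubation. Signal is normalised to DMSO and benzethonium chloride controls. Value is the normalised response at dose 8.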

The test system of assay [8] is HDQ-P1. The assay is described as above. The method, then:
as §2

The test system of assay [9] is CAL-148. The description is as above. The method, then: as §2
Assay [10] relates to MDA-MB-453. The assay is described as above. The method, then: as §2
Assay [11] has as its system CAL-85-1. The description is as above. The method, then: as §2
Assay [12] concerns DU-4475. Described as above. As for the experimental part:
as §2

On to `CCN(CC)CCCC(C)Nc1ccnc2cc(Cl)ccc12` (stereo not given) [Chloroquine] (0.099 nM), for which the normalised viability in the assay with CAL-51 [1] stood at 90%; in the assay on MFM-223, 102%; in the assay with BT-549 it was 107%; with MDA-MB-468, 108%; in the assay on HCC1143, 99.2%; in the assay with HDQ-P1 [2], 112%. Besides, the normalised viability with BT-474 stood at 100%; in the assay on CAL-148 [3], 97.1%; with MDA-MB-231, 112%; with HCC1937, 89.7%; in the assay on MDA-MB-453 [4] it was 107%; in the assay with SK-BR-3, 91.9%. In addition, the normalised viability was determined as 101% in the assay on Hs578T; 87.6% in the assay with CAL-85-1 [5]; 111% in the assay with DU-4475 [6]; 96.9% in the assay with HCC1599; 111% in the assay with MDA-MB-436; 85.9% in the assay on CAL-120.

As for `COc1cc(Nc2c(C#N)cnc3cc(OCCCN4CCN(C)CC4)c(OC)cc23)c(Cl)cc1Cl` [Bosutinib] (3000 nM), the normalised viability with CAL-51 [7] is 80.3%; with HDQ-P1 [8], 44.2%; in the assay with CAL-148 [9] it was 39.8%; in the assay with MDA-MB-453 [10] it was 50.1%; with CAL-85-1 [11], 54.3%; in the assay on DU-4475 [12], 98.6%.

As to `CC(O)(CS(=O)(=O)c1ccc(F)cc1)C(=O)Nc1ccc(C#N)c(C(F)(F)F)c1` (stereo not given) [Bicalutamide] (3000 nM), the normalised viability in the assay on CAL-51 [7] came out at 120%; with HDQ-P1 [8] it was 96.8%; in the assay on CAL-148 [9], 103%; in the assay on MDA-MB-453 [10] it was 114%; with CAL-85-1 [11] it was 101%; with DU-4475 [12] it was 103%.

For `CCN(CC)CCCC(C)Nc1ccnc2cc(Cl)ccc12` (stereo not given) [Chloroquine] (297 nM), the normalised viability came out at 93.4% with CAL-51 [7]; 118% with HDQ-P1 [8]; 95.9% with CAL-148 [9]; 100% with MDA-MB-453 [10]; 96% with CAL-85-1 [11]; 85.2% with DU-4475 [12].

With `Cc1cn(-c2cc(NC(=O)c3ccc(C)c(Nc4nccc(-c5cccnc5)n4)c3)cc(C(F)(F)F)c2)cn1` [Nilotinib] (3000 nM), the normalised viability in the assay on CAL-51 [7] was 108% and 115%; with HDQ-P1 [8] it was 67.9% and 66.5%; in the assay on CAL-148 [9] it was 83.9% and 89.2%; with MDA-MB-453 [10], 87.6% and 97.1%; in the assay with CAL-85-1 [11], 69.3% and 78.6%; with DU-4475 [12] it was 97.8% and 107%.

Take `COc1c2occc2cc2ccc(=O)oc12` [Methoxsalen] (1 nM): the normalised viability came out at 100% in the assay on CAL-51 [1]; 93.1% in the assay on MFM-223; 97.6% with BT-549; 109% in the assay on MDA-MB-468; 101% in the assay with HCC1143; 106% with HDQ-P1 [2]. Further, the normalised viability with BT-474 was found to be 79.9%; with CAL-148 [3] it was 112%; in the assay on MDA-MB-231, 105%; with HCC1937, 93.8%; in the assay with MDA-MB-453 [4] it was 103%; in the assay with SK-BR-3, 104%. Further, the normalised viability turned out to be 103% in the assay with Hs578T; 92.3% in the assay on CAL-85-1 [5]; 96.2% with DU-4475 [6]; 104% with HCC1599; 116% with MDA-MB-436; 107% with CAL-120.

For the compound `C=CCN(/C=C1/C(=O)O[C@H](COC)[C@@]2(C)C1=C(O)C(=O)C1=C2[C@H](OC(C)=O)C[C@]2(C)C(=O)CC[C@@H]12)CC=C` [PX-866] (1 nM), the normalised viability in the assay on CAL-51 [1] is 112%; in the assay on MFM-223, 87.4%; in the assay with BT-549, 105%; in the assay on MDA-MB-468, 96.6%; with HCC1143 it was 99.8%; in the assay on HDQ-P1 [2], 107%. Also, the normalised viability came to 102% with BT-474; 114% in the assay with CAL-148 [3]; 97.6% in the assay on MDA-MB-231; 83.9% with HCC1937; 101% in the assay on MDA-MB-453 [4]; 96.3% in the assay with SK-BR-3. In addition, the normalised viability in the assay with Hs578T is 98.6%; with CAL-85-1 [5], 97%; in the assay with DU-4475 [6], 118%; with HCC1599 it was 104%; in the assay with MDA-MB-436, 94.8%; with CAL-120, 97.7%.

Consider `C=CCn1c(=O)c2cnc(Nc3ccc(N4CCN(C)CC4)cc3)nc2n1-c1cccc(C(C)(C)O)n1` [MK1775] (3000 nM), for which the normalised viability was 7.19% in the assay with CAL-51 [7]; 27.3% with HDQ-P1 [8]; 6.03% with CAL-148 [9]; 19.3% with MDA-MB-453 [10]; 19.2% in the assay on CAL-85-1 [11]; 2.03% in the assay with DU-4475 [12].

For `COc1c2occc2cc2ccc(=O)oc12` [Methoxsalen] (3000 nM), the normalised viability turned out to be 112% in the assay with CAL-51 [7]; 118% in the assay on HDQ-P1 [8]; 91.4% in the assay with CAL-148 [9]; 114% in the assay with MDA-MB-453 [10]; 96.2% in the assay with CAL-85-1 [11]; 94.6% in the assay on DU-4475 [12].

On to `Nc1ccn([C@@H]2O[C@H](CO)[C@@H](O)C2(F)F)c(=O)n1` [Gemcitabine] (300 nM), for which the normalised viability in the assay with CAL-51 [7] turned out to be 15.7%; with HDQ-P1 [8] it was 82.1%; with CAL-148 [9] it was 34.9%; with MDA-MB-453 [10], 44.1%; in the assay on CAL-85-1 [11] it was 43.2%; in the assay with DU-4475 [12] it was 39.8%.

Take `CO[C@@H]1[C@H](N(C)C(=O)c2ccccc2)C[C@H]2O[C@]1(C)n1c3ccccc3c3c4c(c5c6ccccc6n2c5c31)C(=O)NC4` [Midostaurin] (3000 nM): the normalised viability with CAL-51 [7] is 6.39%; in the assay with HDQ-P1 [8] it was 50.5%; in the assay on CAL-148 [9], 84.4%; in the assay on MDA-MB-453 [10] it was 69.6%; with CAL-85-1 [11] it was 73.4%; in the assay on DU-4475 [12] it was 3.23%.

As to `CNC(=O)c1ccccc1Sc1ccc2c(/C=C/c3ccccn3)n[nH]c2c1` [Axitinib] (3000 nM), the normalised viability in the assay with CAL-51 [7] stood at 40.2%; in the assay on HDQ-P1 [8], 64.8%; in the assay on CAL-148 [9], 46%; in the assay on MDA-MB-453 [10] it was 55.4%; in the assay on CAL-85-1 [11], 65.5%; in the assay on DU-4475 [12] it was 33.9%.

In the case of `CC[C@H](CO)Nc1nc(NCc2ccccc2)c2ncn(C(C)C)c2n1` [Roscovitine] (3000 nM), the normalised viability was 107% in the assay on CAL-51 [7]; 91% in the assay on HDQ-P1 [8]; 80.4% with CAL-148 [9]; 86.5% with MDA-MB-453 [10]; 82.6% in the assay on CAL-85-1 [11]; 114% with DU-4475 [12].

Consider `CC1(C)CCC(c2ccc(Cl)cc2)=C(CN2CCN(c3ccc(C(=O)NS(=O)(=O)c4ccc(N[C@H](CCN5CCOCC5)CSc5ccccc5)c(S(=O)(=O)C(F)(F)F)c4)cc3)CC2)C1` [Navitoclax] (3000 nM), for which the normalised viability with CAL-51 [7] is 95.3%; in the assay on HDQ-P1 [8], 43.5%; in the assay on CAL-148 [9] it was 71%; in the assay on MDA-MB-453 [10] it was 70.3%; in the assay on CAL-85-1 [11] it was 87.8%; with DU-4475 [12] it was 20.1%.

(Values after the supplement of paper PMC4862054.)
